Source: patent US12077503B2, “Substituted cyclic amides and their use as herbicides” (FMC CORPORATION, priority 2015, dated 2024)

Key:
Assay type in all cases: in vivo
Kochia (Kochia scoparia) [1] = experiment: Test A preemergence; conditions: Bassia scoparia, pre-emergence, 240 h, 0 to 100 scale where 0 is no effect and 100 is complete control, read-out: Kochia plant response rating; for pest or weed control at 31 g/ha: 31 g ai/ha, Preemergence; for pest or weed control at 125 g/ha: 125 g ai/ha, preemergence, approx. 10 d
Method in brief: (§1)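 Visual injury, scored on a 0–100 scale relative to untreated controls, was recorded about 10 d after application. Treatments were a preemergence soil spray over planted seeds or a postemergence spray on plants at the one- to two-leaf stage, 2 to 10 cm tall, all in loam soil–sand blend in the greenhouse.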

[2] = test system: barnyardgrass (Echinochloa crus-galli); experiment: Test A preemergence; conditions: Echinochloa crus-galli, pre-emergence, 240 h, 0 to 100 scale where 0 is no effect and 100 is complete control, read-out: Barnyardgrass plant response rating; for pest or weed control at 31 g/ha: 31 g ai/ha, Preemergence; for pest or weed control at 125 g/ha: 125 g ai/ha, preemergence, approx. 10 d
Method in brief: as §1

[3] = test system: giant foxtail (Setaria faberii); experiment: Test A preemergence; conditions: Setaria faberi, pre-emergence, 240 h, 0 to 100 scale where 0 is no effect and 100 is complete control, read-out: Foxtail, Giant plant response rating; for pest or weed control at 31 g/ha: 31 g ai/ha, Preemergence; for pest or weed control at 125 g/ha: 125 g ai/ha, preemergence, approx. 10 d
Method in brief: as §1

[4] = test system: pigweed (Amaranthus retroflexus); experiment: Test A preemergence; conditions: Amaranthus retroflexus, pre-emergence, 240 h, 0 to 100 scale where 0 is no effect and 100 is complete control, read-out: Pigweed plant response rating; for pest or weed control at 31 g/ha: 31 g ai/ha, Preemergence; for pest or weed control at 125 g/ha: 125 g ai/ha, preemergence, approx. 10 d
[5] = test system: ragweed (common ragweed, Ambrosia elatior); experiment: Test A preemergence; conditions: Ambrosia artemisiifolia, pre-emergence, 240 h, 0 to 100 scale where 0 is no effect and 100 is complete control, read-out: Ragweed plant response rating; for pest or weed control at 31 g/ha: 31 g ai/ha, Preemergence; for pest or weed control at 125 g/ha: 125 g ai/ha, preemergence, approx. 10 d
Method in brief: as §1

[6] = test system: ryegrass, Italian (Italian ryegrass, Lolium multiflorum); experiment: Test A preemergence; conditions: Lolium multiflorum, pre-emergence, 240 h, 0 to 100 scale where 0 is no effect and 100 is complete control, read-out: Ryegrass, Italian plant response rating; for pest or weed control at 31 g/ha: 31 g ai/ha, Preemergence; for pest or weed control at 125 g/ha: 125 g ai/ha, preemergence, approx. 10 d
Method in brief: as §1

[7] = test system: Galium (catchweed bedstraw, Galium aparine); experiment: Test A postemergence; conditions: Galium, post-emergence, 240 h; for pest or weed control at 125 g/ha: 125 g ai/ha, postemergence, visual injury vs untreated controls after approx. 10 d, 0 = no effect, 100 = complete control, read-out: Galium plant response rating (0 to 100 scale); for pest or weed control at 31 g/ha: Postemergence, 31 g ai/ha, visual injury after approx. 10 d, 0 to 100 scale, 0 no effect, 100 complete control, read-out: Plant response rating, Galium
Method in brief: as §1

Kochia (Kochia scoparia) [8] = experiment: Test A postemergence; conditions: Bassia scoparia, post-emergence, 240 h; for pest or weed control at 125 g/ha: 125 g ai/ha, postemergence, visual injury vs untreated controls after approx. 10 d, 0 = no effect, 100 = complete control, read-out: Kochia plant response rating (0 to 100 scale); for pest or weed control at 31 g/ha: Postemergence, 31 g ai/ha, visual injury after approx. 10 d, 0 to 100 scale, 0 no effect, 100 complete control, read-out: Plant response rating, Kochia
Method in brief: as §1

[9] = test system: barnyardgrass (Echinochloa crus-galli); experiment: Test A postemergence; conditions: Echinochloa crus-galli, post-emergence, 240 h; for pest or weed control at 125 g/ha: 125 g ai/ha, postemergence, visual injury vs untreated controls after approx. 10 d, 0 = no effect, 100 = complete control, read-out: Barnyardgrass plant response rating (0 to 100 scale); for pest or weed control at 31 g/ha: Postemergence, 31 g ai/ha, visual injury after approx. 10 d, 0 to 100 scale, 0 no effect, 100 complete control, read-out: Plant response rating, Barnyardgrass
Method in brief: as §1

[10] = test system: blackgrass (Alopecurus myosuroides); experiment: Test A postemergence; conditions: Alopecurus myosuroides, post-emergence, 240 h; for pest or weed control at 125 g/ha: 125 g ai/ha, postemergence, visual injury vs untreated controls after approx. 10 d, 0 = no effect, 100 = complete control, read-out: Blackgrass plant response rating (0 to 100 scale); for pest or weed control at 31 g/ha: Postemergence, 31 g ai/ha, visual injury after approx. 10 d, 0 to 100 scale, 0 no effect, 100 complete control, read-out: Plant response rating, Blackgrass
Method in brief: as §1

corn (Zea mays) = experiment: Test A postemergence; conditions: Zea mays, post-emergence, 240 h; for plant injury at 125 g/ha: 125 g ai/ha, postemergence, visual injury vs untreated controls after approx. 10 d, 0 = no effect, 100 = complete control, read-out: Corn plant response rating (0 to 100 scale); for Corn plant response rating (crop injury, 0 = no effect, 100 = complete kill) at 31 g/ha: Postemergence, 31 g ai/ha, visual injury after approx. 10 d, 0 to 100 scale, 100 complete control
Method in brief: as §1

[11] = test system: giant foxtail (Setaria faberii); experiment: Test A postemergence; conditions: Setaria faberi, post-emergence, 240 h; for pest or weed control at 125 g/ha: 125 g ai/ha, postemergence, visual injury vs untreated controls after approx. 10 d, 0 = no effect, 100 = complete control, read-out: Foxtail, Giant plant response rating (0 to 100 scale); for pest or weed control at 31 g/ha: Postemergence, 31 g ai/ha, visual injury after approx. 10 d, 0 to 100 scale, 0 no effect, 100 complete control, read-out: Plant response rating, Foxtail, Giant
Method in brief: as §1

[12] = test system: pigweed (Amaranthus retroflexus); experiment: Test A postemergence; conditions: Amaranthus retroflexus, post-emergence, 240 h; for pest or weed control at 125 g/ha: 125 g ai/ha, postemergence, visual injury vs untreated controls after approx. 10 d, 0 = no effect, 100 = complete control, read-out: Pigweed plant response rating (0 to 100 scale)
Method in brief: as §1

[13] = test system: ragweed (common ragweed, Ambrosia elatior); experiment: Test A postemergence; conditions: Ambrosia artemisiifolia, post-emergence, 240 h; for pest or weed control at 125 g/ha: 125 g ai/ha, postemergence, visual injury vs untreated controls after approx. 10 d, 0 = no effect, 100 = complete control, read-out: Ragweed plant response rating (0 to 100 scale)
Method in brief: as §1

[14] = test system: ryegrass, Italian (Italian ryegrass, Lolium multiflorum); experiment: Test A postemergence; conditions: Lolium multiflorum, post-emergence, 240 h; for pest or weed control at 125 g/ha: 125 g ai/ha, postemergence, visual injury vs untreated controls after approx. 10 d, 0 = no effect, 100 = complete control, read-out: Ryegrass, Italian plant response rating (0 to 100 scale)
Method in brief: as §1

[15] = test system: wheat (Triticum aestivum); experiment: Test A postemergence; conditions: Triticum aestivum, post-emergence, 240 h; for plant injury at 125 g/ha: 125 g ai/ha, postemergence, visual injury vs untreated controls after approx. 10 d, 0 = no effect, 100 = complete control, read-out: Wheat plant response rating (0 to 100 scale)
Method in brief: as §1

[16] = test system: barnyardgrass (Echinochloa crus-galli); experiment: Test B flooded paddy test; conditions: Echinochloa crus-galli, 250 g ai/ha, Flood; 0 to 100 scale where 0 is no effect and 100 is complete control; read-out: Barnyardgrass plant response rating
Method in brief: (§2)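 Percent control, visually estimated after 13–15 d in the greenhouse on a 0–100 basis, compares treated pots with untreated ones; compound was put into paddy water 3 cm above the soil when plants had two leaves.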

[17] = test system: ducksalad (Heteranthera limosa); experiment: Test B flooded paddy test; conditions: Heteranthera limosa, 250 g ai/ha, Flood; 0 to 100 scale where 0 is no effect and 100 is complete control; read-out: Ducksalad plant response rating
Method in brief: as §2

rice (Oryra sativa) = experiment: Test B flooded paddy test; conditions: Oryza sativa, 250 g ai/ha, Flood; 0 to 100 scale where 0 is no effect and 100 is complete control; read-out: Rice plant response rating
Method in brief: as §2

[18] = test system: sedge, umbrella (small-flower umbrella sedge, Cyperus difformis); experiment: Test B flooded paddy test; conditions: Cyperus difformis, 250 g ai/ha, Flood; 0 to 100 scale where 0 is no effect and 100 is complete control; read-out: Sedge, Umbrella plant response rating
Method in brief: as §2

SMILES: CN1C[C@H](c2ccc3ncccc3c2)[C@@H](C(=O)Nc2cccc(F)c2F)C1=O [Compound 1167]
- pest or weed control at 31 g/ha (Kochia (Kochia scoparia) [1]): 0%
- pest or weed control at 125 g/ha (Kochia (Kochia scoparia) [1]): 0%
- pest or weed control at 31 g/ha [2]: 0%
- pest or weed control at 125 g/ha [2]: 0%
- pest or weed control at 31 g/ha [3]: 0%
- pest or weed control at 125 g/ha [3]: 50%
- pest or weed control at 31 g/ha [4]: 0%
- pest or weed control at 125 g/ha [4]: 0%
- pest or weed control at 31 g/ha [5]: 0%
- pest or weed control at 125 g/ha [5]: 0%
- pest or weed control at 31 g/ha [6]: 0%
- pest or weed control at 125 g/ha [6]: 0%
- pest or weed control at 125 g/ha [7]: 20%
- pest or weed control at 31 g/ha [7]: 0%
- pest or weed control at 125 g/ha (Kochia (Kochia scoparia) [8]): 0%
- pest or weed control at 31 g/ha (Kochia (Kochia scoparia) [8]): 0%
- pest or weed control at 125 g/ha [9]: 50%
- pest or weed control at 31 g/ha [9]: 0%
- pest or weed control at 125 g/ha [10]: 0%
- pest or weed control at 31 g/ha [10]: 0%
- plant injury at 125 g/ha (corn (Zea mays)): 0%
- Corn plant response rating (crop injury, 0 = no effect, 100 = complete kill) at 31 g/ha (corn (Zea mays)): 0%
- pest or weed control at 125 g/ha [11]: 30%
- pest or weed control at 31 g/ha [11]: 0%
- pest or weed control at 125 g/ha [12]: 0%
- pest or weed control at 31 g/ha ([12]; Postemergence, 31 g ai/ha, visual injury after approx. 10 d, 0 to 100 scale, 0 no effect, 100 complete control, read-out: Plant response rating, Pigweed): 0%
- pest or weed control at 125 g/ha [13]: 0%
- pest or weed control at 31 g/ha ([13]; Postemergence, 31 g ai/ha, visual injury after approx. 10 d, 0 to 100 scale, 0 no effect, 100 complete control, read-out: Plant response rating, Ragweed): 0%
- pest or weed control at 125 g/ha [14]: 0%
- pest or weed control at 31 g/ha ([14]; Postemergence, 31 g ai/ha, visual injury after approx. 10 d, 0 to 100 scale, 0 no effect, 100 complete control, read-out: Plant response rating, Ryegrass, Italian): 0%
- plant injury at 125 g/ha [15]: 50%
- plant injury at 31 g/ha ([15]; Postemergence, 31 g ai/ha, visual injury after approx. 10 d, 0 to 100 scale, 0 no effect, 100 complete control, read-out: Plant response rating, Wheat): 0%
- pest or weed control at 250 g/ha [16]: 0%
- pest or weed control at 250 g/ha [17]: 0%
- pest or weed control at 250 g/ha (rice (Oryra sativa)): 0%
- pest or weed control at 250 g/ha [18]: 0%

SMILES: CON1CC[C@H](c2cccc(C(F)(F)F)c2)[C@@H](C(=O)Nc2cccc(Cl)c2F)C1=O [Compound 1171]
- pest or weed control at 31 g/ha (Kochia (Kochia scoparia) [1]): 0%
- pest or weed control at 125 g/ha (Kochia (Kochia scoparia) [1]): 30%
- pest or weed control at 31 g/ha [2]: 40%
- pest or weed control at 125 g/ha [2]: 80%
- pest or weed control at 31 g/ha [3]: 70%
- pest or weed control at 125 g/ha [3]: 90%
- pest or weed control at 31 g/ha [4]: 0%
- pest or weed control at 125 g/ha [4]: 40%
- pest or weed control at 31 g/ha [5]: 0%
- pest or weed control at 125 g/ha [5]: 0%
- pest or weed control at 31 g/ha [6]: 0%
- pest or weed control at 125 g/ha [6]: 60%
- pest or weed control at 125 g/ha [7]: 0%
- pest or weed control at 31 g/ha [7]: 0%
- pest or weed control at 125 g/ha (Kochia (Kochia scoparia) [8]): 0%
- pest or weed control at 31 g/ha (Kochia (Kochia scoparia) [8]): 0%
- pest or weed control at 125 g/ha [9]: 70%
- pest or weed control at 31 g/ha [9]: 20%
- pest or weed control at 125 g/ha [10]: 0%
- pest or weed control at 31 g/ha [10]: 0%
- plant injury at 125 g/ha (corn (Zea mays)): 0%
- Corn plant response rating (crop injury, 0 = no effect, 100 = complete kill) at 31 g/ha (corn (Zea mays)): 0%
- pest or weed control at 125 g/ha [11]: 60%
- pest or weed control at 31 g/ha [11]: 30%
- pest or weed control at 125 g/ha [12]: 0%
- pest or weed control at 125 g/ha [13]: 0%
- pest or weed control at 125 g/ha [14]: 0%
- plant injury at 125 g/ha [15]: 0%
- pest or weed control at 250 g/ha [16]: 30%
- pest or weed control at 250 g/ha [17]: 0%
- pest or weed control at 250 g/ha (rice (Oryra sativa)): 0%
- pest or weed control at 250 g/ha [18]: 0%
